Measurements reported in the METLIN SMRT retention time set (Domingo-Almenara et al. 2019).

Assay: gradient 5% acetonitrile 3 min, to 50% in 2 min, to 85% in 15 min, held 3 min, 100 µL/min
Details: column: Zorbax Extend-C18 2.1 x 50 mm; eluents: water / acetonitrile, 0.1% formic acid
Summary of the method: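 Retention times of pure standards were taken from adduct peaks that were selected by computer and manually inspected. Over 3 months, mixtures of ~100 molecules were run by HPLC–quadrupole time-of-flight mass spectrometry in positive and negative ionization mode. The Zorbax Extend-C18 column (2.1 × 50 mm, 1.8 μm) ran at 100 μL/min in water and acetonitrile, each containing 0.1% formic acid, with 40 μL dead volume and 900 μL dwell volume.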

Compound	RP-LC retention time
Cc1ccn2cc(-c3ccc(NS(=O)(=O)c4cccc(F)c4)cc3)nc2n1	651 s
Cc1cc(C)cc(NC(=O)Nc2nccn(-c3cc(Cl)ccc3C)c2=O)c1	1150 s
Cc1cc(F)ccc1NS(=O)(=O)c1cc2n(c1)CCN(C(C)C)C2=O	773 s
CCCNC(=O)C1CCCN(c2nnc3c(Cl)cccn23)C1 (stereo not given)	571 s
Cc1cccc(N2CCN(C(=O)c3cn(-c4cc(N5CCSCC5)ncn4)cn3)CC2)c1	932 s
O=C(Cc1ccc(Cl)cc1)N1CCN(c2cc(-c3ccccc3)[nH]n2)CC1	841 s
CCCNC(=O)C1CCCN(c2ccc(SCC(=O)Nc3cccc(Br)c3)nn2)C1 (stereo not given)	730 s
Cc1cccc(-n2c(=O)c3c(cc(C)n3C)n(CC(=O)N(C)c3ccccc3)c2=O)c1	864 s
CNS(=O)(=O)c1cc(-c2nnc(-c3ccc(OC)c(OC)c3)o2)ccc1C	779 s
Cn1ccc2cc(CCC(=O)N3CCCC3)ccc21	789 s
O=C(Nc1ccc(F)cc1F)c1c(O)c2cccnc2n(-c2cccc(F)c2)c1=O	918 s
O=C(NCc1ccco1)C1CCN(c2cncnc2N2CCOCC2)CC1	578 s
Cc1nc(C)c(-c2nnc(NC(=O)NCc3cccs3)o2)s1	672 s
CCCC(NC(=O)c1sccc1C)C(=O)Nc1nc2ccccc2[nH]1 (stereo not given)	686 s
CC(C)Cn1cc(S(=O)(=O)Nc2ccc(Cl)cc2)c2cccnc21	988 s
O=C(Nc1ccc(F)cc1F)Nc1c(-c2ccc(F)cc2)nc2ccccn12	677 s
COC(=O)CC1=CC(SCC(=O)Nc2ccc(Cl)cc2F)=Nc2ccccc2N1	910 s
Cc1ccc(-c2nc3ccc(C)cn3c2Nc2ccc3c(c2)OCO3)cc1	725 s
Cc1ccc(N2CCN(S(=O)(=O)c3cc4n(c3)CCCNC4=O)CC2)cc1	743 s
O=C(N[C@H]1C[C@@H]2C[C@H]1CN2C(=O)NCCc1ccccc1)c1cccs1	716 s

Compound	RP-LC retention time
Cc1ccccc1-c1nnc(CSc2nnc(NC(=O)c3ccccc3C(F)(F)F)s2)o1	972 s
COC(=O)C1=C(NC(=O)c2ccc(N3C(=O)CCC3=O)cc2)CCS1	739 s
Cc1cc(C)c(-c2noc(C)n2)c(NC(=O)C2CCCCC2)n1	723 s
CCC(=O)NC(C)c1nc(-c2ccc(C)cc2)no1 (stereo not given)	777 s
CS(=O)(=O)c1nc2ccc(NS(=O)(=O)c3ccc4c(c3)OCCO4)cc2s1	792 s
CCN1CCCN(C(=O)C2(c3ccc(OC)cc3)CC2)CC12CCOCC2	620 s
CSc1ccc(CNC(=O)C2CCCN(c3ccnc(-c4ccc(F)cc4)n3)C2)cc1 (stereo not given)	728 s
CCSc1nc2ccc(NS(=O)(=O)Cc3ccc(Cl)cc3)cc2s1	1080 s
COCCNC(=O)c1ccc2nc(CCc3ccc(NC(C)=O)cc3)[nH]c2c1	573 s
CS(=O)(=O)N1CCN(C(=O)CCn2nnc3ccccc3c2=O)CC1	604 s
CN1C(=O)CCCCC1C(=O)N1CCc2ccccc21 (stereo not given)	721 s
CC1CCC(C(C)C)C(NC(=O)c2ccncc2)C1 (stereo not given)	894 s
O=C(c1cccs1)N1CCN(c2ccc(=O)n(-c3cccc(Cl)c3)n2)CC1	814 s
CCC(C)NC(=O)c1nnc(-c2ccc(S(=O)(=O)N3CCCCC3)cc2)o1 (stereo not given)	961 s
CC(C)c1cccc(N2C=C(C(=O)N3CCCCC3)S(=O)(=O)c3ccccc32)c1	1010 s
O=C1CSC(c2cccs2)N1c1nncs1 (stereo not given)	804 s
O=C(NC1CC1)C1CCc2sc(C(=O)N3CCCCC3)cc2C1 (stereo not given)	711 s
COC(=O)c1cccc(NC(=O)c2sc3ncccc3c2-n2cccc2)c1	1040 s
CC(C)n1cnc(S(=O)(=O)N2CCC(C(=O)NCc3cccs3)CC2)c1	701 s
CCC(C)n1c(C)cc(=O)n1C(C)CC (stereo not given)	759 s

Compound	RP-LC retention time
CCCC1c2nccn2CCCN1C(=O)CCc1c(C)noc1C (stereo not given)	595 s
CCn1c(=O)c(C(=O)N2CCN(c3cc(C)ccc3C)CC2)nc2cccnc21	1040 s
Cn1nc2n(c1=O)CCN(C(=O)C1CC=CCC1)CC2 (stereo not given)	624 s
c1ccc([C@@H]2CN(Cc3ccncc3)C[C@H]2COc2cccnc2)nc1	516 s
Clc1cccc(-c2nc(Cn3ccnc3)no2)c1	629 s
O=C(c1ccsc1)N1CCC(c2nc(-c3ccc(F)cc3)n[nH]2)CC1	726 s
O=C(NCCC1=CCCCC1)C(=O)NCc1ccsc1	894 s
COCCN1C(=O)CCc2cc(NS(=O)(=O)c3cc(Cl)ccc3OC)ccc21	803 s
O=C(c1ccccc1)N1CCc2ccc(NS(=O)(=O)c3cccs3)cc2C1	759 s
Cc1ccc(CNc2cc(-n3ccnc3)ncn2)cc1C	682 s
CC(=O)N1CCc2sc(S(=O)(=O)N3CCN(c4ccc(C)cc4)CC3)cc2C1	926 s
CCC(C)NC(=O)C1CCN(S(=O)(=O)c2cc(C(=O)N3CCCC3)n(C)c2)CC1 (stereo not given)	660 s
CC(C)c1nc(-n2cccc2)sc1C(=O)NCCc1ccc(S(N)(=O)=O)cc1	924 s
COc1ccc(S(=O)(=O)Nc2cc3sc(=O)oc3c3ccccc23)cc1	894 s
O=C(Cn1nc(Cc2ccncc2)c2ccccc2c1=O)N1CC=C(c2ccccc2)CC1	685 s
CC(=O)c1ccc(NC(=O)CCc2c(C)nn(-c3cc(N(C)C)ncn3)c2C)cc1	749 s
CCCNC(=O)c1c(OCC2CC2)cc(=O)n2c1CCCCC2	683 s
COc1ccc(S(=O)(=O)N2CCCCC2CC(=O)Nc2ncccn2)cc1 (stereo not given)	647 s
Cn1c(=O)c2nc(SCCC(=O)Nc3cc(F)cc(F)c3)n(C)c2n(C)c1=O	751 s

The next lines start with the values.

RP-LC retention time	Compound
625 s	COc1ccccc1-c1nc(-c2ccc3c(c2)ncn3CCN2CCOCC2)no1
989 s	CC1CCc2nc(NC(=O)CSc3nnc(-c4ccccc4)o3)sc2C1 (stereo not given)
564 s	CCCN1CCN(CCCNC(=O)CSc2nc3ccccc3n(C)c2=O)CC1
824 s	Cc1noc(-c2ccc(NC(=O)c3cccnc3)cc2)n1
708 s	CC(C)NC(=O)CSc1ccc(N2CCN(c3ccccc3)CC2)nn1
951 s	COc1ccc(-c2noc(NC3CCCC3)n2)cc1
855 s	O=C(Cn1cccc(-c2nc(-c3ccc(Cl)cc3)no2)c1=O)N1CCCCC1
1100 s	CC1CCN(S(=O)(=O)c2ccc(-c3nnc(C(=O)NCCc4ccccc4)o3)cc2)CC1
918 s	COc1ccc(NC(=O)Cn2nc3cc(-c4ccccc4)nc(C)n3c2=O)c(OC)c1
730 s	O=C(Cn1cnc2ccccc2c1=O)N1CCCC(c2nnc(-c3ccccc3F)s2)C1 (stereo not given)
644 s	O=C(NCc1ccco1)C1CCN(c2nc3ccc(-c4cccnc4)nc3s2)CC1
845 s	O=c1ccn(-c2ccc(Cl)cc2)nc1-c1nc(-c2ccccc2OCc2ccccc2)no1
640 s	COc1cc(OC)c(NC(=O)N(C)Cc2nc3cc(C(=O)N4CCCC4)ccc3n2C)cc1Cl
967 s	O=C(CN1CCCCC1c1nc(-c2cccc(F)c2)no1)Nc1cccc(F)c1 (stereo not given)
688 s	COc1cccc(CNC(=O)N2CCC(N3CCN(Cc4cccc(F)c4)C(=O)C3=O)CC2)c1
1030 s	O=C(NCc1ccccc1Cl)c1nnc(-c2ccc(S(=O)(=O)N3CCCCC3)cc2)o1

RP-LC retention time	Compound
1170 s	Cc1ccc(N2C(=O)C3N=NN(Cc4nc(-c5ccc(OC(C)C)cc5)no4)C3C2=O)cc1Cl (stereo not given)
703 s	Cc1nc(S(=O)(=O)N2CCc3c(c(-c4nnc(-c5ccccc5F)o4)nn3C)C2)cn1C
1210 s	O=c1c2cc(-c3ccc(Br)cc3)nn2cnn1Cc1nc(-c2ccc(F)cc2)no1
659 s	CNc1nc(Nc2ccccc2OC)nc2ccccc12
941 s	COc1cccc(-c2noc(C3CCCN3C(=O)Nc3ccc(OC)cc3OC)n2)c1 (stereo not given)
658 s	Cc1noc(-c2ccc(NC(=O)c3cn(C)nn3)cc2)n1
938 s	Cc1ccc(CNC(=O)C2CCN(S(=O)(=O)c3ccc(-c4noc(C5CC5)n4)cc3)CC2)o1
553 s	CCN1CCN(CCCNC(=O)C(C)n2c3ccccc3c3cnn(C)c(=O)c32)CC1 (stereo not given)
1010 s	COc1ccc(Cc2noc(Cc3nnc(-c4ccc(Cl)cc4)o3)n2)cc1
994 s	COc1ccc(C)cc1NC(=O)C1CCN(S(C)(=O)=O)c2ccccc2O1 (stereo not given)
848 s	CCn1c(=O)oc2cc(S(=O)(=O)N3CCN(C(=O)C4(c5ccccc5)CC4)CC3)ccc21
702 s	O=C(Cn1c(=O)oc2ccccc21)N1CCC(c2noc(-c3cccnc3)n2)C1 (stereo not given)
1100 s	CC1CCCC(NC(=O)Cn2cnc3onc(-c4ccc(Cl)cc4)c3c2=O)C1C (stereo not given)
853 s	O=C(Cn1cnc(-c2nc(-c3ccccc3)cs2)c1)N1CCN(c2ccccc2)CC1
707 s	CCOc1cc(=O)n2c(c1C(=O)N1CCCc3ccccc31)CCCC2
